Data: publication PMC4284702, “Cloning and Characterization of Farnesyl Diphosphate Synthase Gene Involved in Triterpenoids Biosynthesis from Poria cocos” (International Journal of Molecular Sciences, 2014)

Biological target: rPc-FPS (Pc-FPS, recombinant farnesyl diphosphate synthase of Poria cocos) (Wolfiporia cocos, UniProt K7DW87)
Assay: GC of farnesol after acid phosphatase hydrolysis of product FPP
Format: biochemical
Conditions: 2 mM MgCl2, 5 mM DTT, 50 mM MOPS pH 7.5, 30 °C, 3 h

rPc-FPS (Pc-FPS, recombinant farnesyl diphosphate synthase of Poria cocos), sequence (K7DW87 entry or part of it): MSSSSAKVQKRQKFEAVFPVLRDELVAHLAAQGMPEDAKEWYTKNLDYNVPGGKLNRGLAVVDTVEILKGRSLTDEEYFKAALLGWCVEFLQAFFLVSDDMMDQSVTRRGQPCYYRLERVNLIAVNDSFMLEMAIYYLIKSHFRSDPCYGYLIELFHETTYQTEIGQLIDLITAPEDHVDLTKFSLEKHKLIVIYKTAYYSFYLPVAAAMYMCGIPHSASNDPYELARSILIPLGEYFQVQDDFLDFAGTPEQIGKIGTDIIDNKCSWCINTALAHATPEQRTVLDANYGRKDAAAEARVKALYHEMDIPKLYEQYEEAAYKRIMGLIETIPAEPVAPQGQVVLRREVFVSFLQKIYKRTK

| SMILES | GC of farnesol after acid phosphatase hydrolysis of product FPP (50 uM GPP, co-substrate 50 uM IPP) | GC of farnesol after acid phosphatase hydrolysis of product FPP (50 uM IPP, co-substrate 50 uM GPP) |
| --- | --- | --- |
| CC(C)=CCC/C(C)=C/COP(=O)(O)OP(=O)(O)O [GPP] | the purified rPc-FPS was used to catalyze GPP with IPP to produce FPP | – |
| C=C(C)CCOP(=O)(O)OP(=O)(O)O [IPP] | – | rPc-FPS could catalyze the formation of FPP from GPP and IPP |
